Measurements reported in patent US20250197387A1, “BCL-XL DEGRADERS AND USES THEREOF” (Kymera Therapeutics, Inc., priority 2021, published 2025).
Like-named read-outs stand apart in the source and are kept apart here.

Key:
Format in all cases: cell-based
BCL-XL [1] = molecular target: T1, BCL-XL (Homo sapiens, UniProt Q07817); experiment: BCL-XL degradation assay, western blot in MOLT-4 cells, 16 h; settings: for DC50: read-out: Bcl-xL WB in MOLT-4 degradation 16 h: Mean external-Abs DC50
T1 construct: endogenous in cells; host or cells: MOLT-4
Method in brief: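 Infrared-imaged western blots quantified BCL-xL (normalised against beta-actin/GAPDH) after 16 hr, 37° C exposure of MOLT-4 cells to 0.02-10 μM compound; results given as DC50 and Dmax % bins.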

BCL-XL [2] = molecular target: T1, BCL-XL; experiment: Bcl-xL ELISA degradation in MOLT-4 cells, 6 h; settings: for DC50: read-out: Bcl-xL ELISA in MOLT-4 degradation 6 h: Mean external-Abs DC50
Protocol: The letter codes for BCL-XL DC50 include: A (<0.01 μM); B (0.01-0.1 μM); C (>[…]); D (>0.5-1.0 μM); and E (>1.0 μM). The letter codes for Dmax % include A (>75%); B (50 to 75%); C (<50%).

MOLT-4 cells = experiment: CTG (CellTiter-Glo) cell viability assay, MOLT-4; settings: Homo sapiens, 3 day incubation, read-out: CTG Cell Viability Assay - MOLT-4 3 day: Average external-IC50
Method in brief: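 10,000 cells/well; 9 doses, 1:3 from 10 μM top; 0.2% DMSO; 3 d, 37 °C, 5% CO2; CTG luminescence; IC50 via 3-parameter logistic fit. Letter bins differ: Caki-2 C/D cut at 10.0 μM, MOLT-4 at 3.0 μM.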

[3] = western blot, MOLT-4 cells, 16 h, read-out: Bcl-xL WB in MOLT-4 degradation 16 h: Average Dmax %
[4] = western blot, MOLT-4 cells, 16 h

T1 sequence (Q07817 whole entry): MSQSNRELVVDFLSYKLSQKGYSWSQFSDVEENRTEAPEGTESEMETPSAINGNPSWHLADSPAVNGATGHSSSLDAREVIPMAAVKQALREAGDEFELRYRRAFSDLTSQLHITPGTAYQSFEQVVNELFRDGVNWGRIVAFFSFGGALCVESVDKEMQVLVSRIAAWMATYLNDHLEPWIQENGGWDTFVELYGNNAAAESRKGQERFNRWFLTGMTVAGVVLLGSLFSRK

Row | SMILES | Dmax (BCL-XL [1]; [3]) [%] | DC50 (BCL-XL [1]; [4]) [nM] | Dmax (BCL-XL [2]) [%] | DC50 (BCL-XL [2]) [nM] | IC50 (MOLT-4 cells; MOLT-4, 72 h) [nM] | Dmax (BCL-XL [1]; MOLT-4, read-out: Bcl-xL WB in MOLT-4 degradation 16 h: Average Dmax %) [%] | IC50 (MOLT-4 cells; 72 h) [nM]
1 | Cc1ncsc1-c1ccc(CNC(=O)[C@@H]2C[C@@H](O)CN2C(=O)[C@@H](NC(=O)C2(F)CC2)C(C)(C)C)c(OCC(=O)N2CCN(CC#Cc3ccc(OCCCc4sc(N5CCc6cccc(C(=O)Nc7nc8ccccc8s7)c6C5)nc4C(=O)O)c(F)c3)CC2)c1 [I-170] | > 75 | 10 to 100 | 50 to 75 | 10 to 100 | 100 to 1000 |  | 
2 | Cc1ncsc1-c1ccc(CNC(=O)[C@@H]2C[C@@H](O)CN2C(=O)[C@H](c2cc(OCCCCCCCCC(=O)N(C)CC#Cc3ccc(OCCCc4ccc(N5CCc6cccc(C(=O)Nc7nc8ccccc8s7)c6C5)nc4C(=O)O)c(F)c3)no2)C(C)C)cc1 [I-172] | > 75 | < 10 | 50 to 75 | 10 to 100 | 100 to 1000 |  | 
3 | Cc1ncsc1-c1ccc([C@H](C)NC(=O)[C@@H]2C[C@@H](O)CN2C(=O)[C@@H](NC(=O)CN2CC(N3CCC(NC(=O)c4nc(N5CCc6cccc(C(=O)Nc7nc8ccccc8s7)c6C5)ccc4-c4cnn(CC5CCCCC5)c4C)CC3)C2)C(C)(C)C)cc1 [I-176] |  | 10 to 100 | 50 to 75 | 100 to 500 |  | > 75 | 100 to 1000
4 | Cc1ncsc1-c1ccc(CNC(=O)[C@@H]2C[C@@H](O)CN2C(=O)[C@H](c2cc(N3CC4(CN(CCCC(=O)N(C)CC#Cc5ccc(OCCCc6ccc(N7CCc8cccc(C(=O)Nc9nc%10ccccc%10s9)c8C7)nc6C(=O)O)c(F)c5)C4)C3)no2)C(C)C)cc1 [I-181] | > 75 | < 10 | 50 to 75 | 10 to 100 | 100 to 1000 |  | 
5 | Cc1ncsc1-c1ccc([C@H](C)NC(=O)[C@@H]2C[C@@H](O)CN2C(=O)[C@@H](NC(=O)CO[C@H]2C[C@H](OCCNC(=O)c3nc(N4CCc5cccc(C(=O)Nc6nc7ccccc7s6)c5C4)ccc3-c3cnn(CC4CCCCC4)c3C)C2)C(C)(C)C)cc1 [I-182] | > 75 | 10 to 100 | 50 to 75 | 100 to 500 | 100 to 1000 |  | 
6 | Cc1ncsc1-c1ccc(CNC(=O)[C@@H]2C[C@@H](O)CN2C(=O)[C@@H](NC(=O)C2(F)CC2)C(C)(C)C)c(OCCCN(C)CC[C@H](CSc2ccccc2)Nc2ccc(S(=O)(=O)NC(=O)c3ccc(N4CCN(CC5=C(c6ccc(Cl)cc6)CCC(C)(C)C5)CC4)cc3)cc2S(=O)(=O)C(F)(F)F)c1 [I-184] | > 75 | 10 to 100 | 50 to 75 | 100 to 500 | 100 to 1000 |  | 
7 | Cc1ncsc1-c1ccc([C@H](C)NC(=O)[C@@H]2C[C@@H](O)CN2C(=O)[C@@H](NC(=O)CCCCCCN(C)C(=O)c2nc(N3CCc4cccc(C(=O)Nc5nc6ccccc6s5)c4C3)ccc2-c2cnn(CC3CCCCC3)c2C)C(C)(C)C)cc1 [I-185] | > 75 | 10 to 100 | 50 to 75 | 10 to 100 | 100 to 1000 |  | 
8 | C#Cc1ccc([C@H](CO)NC(=O)[C@@H]2C[C@@H](O)CN2C(=O)[C@@H](NC(=O)CCc2ccc(S(=O)(=O)NC(=O)c3nc(N(C)c4cc(C)c(Nc5nc6ccccc6s5)nn4)ccc3-c3cnn(CC4CCCCC4)c3C)cc2)C(C)(C)C)cc1 [I-186] | > 75 | 10 to 100 | 50 to 75 | 10 to 100 | 100 to 1000 |  | 
9 | Cc1ncsc1-c1ccc(CNC(=O)[C@@H]2C[C@@H](O)CN2C(=O)[C@@H](NC(=O)C2(F)CC2)C(C)(C)C)c(OCCN2CCC(CS(=O)(=O)NC(=O)c3nc(N4CCc5cccc(C(=O)Nc6nc7ccccc7s6)c5C4)ccc3-c3cnn(CC4CCCCC4)c3C)CC2)c1 [I-189] | > 75 | 10 to 100 | 50 to 75 | 10 to 100 | 100 to 1000 |  | 
10 | Cc1ncsc1-c1ccc(CNC(=O)[C@@H]2C[C@@H](O)CN2C(=O)[C@H](c2cc(N3CC4(CN(C(=O)CCCCC(=O)N(C)CC#Cc5ccc(OCCCc6ccc(N7CCc8cccc(C(=O)Nc9nc%10ccccc%10s9)c8C7)nc6C(=O)O)c(F)c5)C4)C3)no2)C(C)C)cc1 [I-192] | 50 to 75 | < 10 | < 50 | > 1000 | 1000 to 3000 |  | 
11 | C#Cc1ccc([C@H](CO)NC(=O)[C@@H]2C[C@@H](O)CN2C(=O)[C@@H](NC(=O)CCc2ccc(S(=O)(=O)NC(=O)c3nc(N4CCc5cccc(C(=O)Nc6nc7ccccc7s6)c5C4)ccc3-c3cnn(CC4CCCCC4)c3C)cc2)C(C)(C)C)cc1 [I-194] | > 75 | < 10 | > 75 | 10 to 100 | < 100 |  | 

More lines, main results first:

Row | Dmax (BCL-XL [1]; [3]) [%] | DC50 (BCL-XL [1]; [4]) [nM] | Dmax (BCL-XL [2]) [%] | DC50 (BCL-XL [2]) [nM] | IC50 (MOLT-4 cells; MOLT-4, 72 h) [nM] | SMILES | Dmax (BCL-XL [1]; MOLT-4, read-out: Bcl-xL WB in MOLT-4 degradation 16 h: Average Dmax %) [%] | IC50 (MOLT-4 cells; 72 h) [nM]
12 | > 75 | 10 to 100 | < 50 | > 1000 | 100 to 1000 | Cc1cc([C@H](C(=O)N2C[C@H](O)C[C@H]2C(=O)NCc2ccc(-c3scnc3C)cc2OCCCCCCNC(=O)c2nc(N3CCc4cccc(C(=O)Nc5nc6ccccc6s5)c4C3)ccc2-c2cnn(CC3CCCCC3)c2C)C(C)C)on1 [I-197] |  | 
13 | > 75 | < 10 | > 75 | 10 to 100 | 100 to 1000 | Cc1ncsc1-c1ccc([C@H](C)NC(=O)[C@@H]2C[C@@H](O)CN2C(=O)[C@@H](NC(=O)CCCCCCCCC(=O)N2CCN(CC#Cc3ccc(OCCCc4sc(N5CCc6cccc(C(=O)Nc7nc8ccccc8s7)c6C5)nc4C(=O)O)c(F)c3)CC2)C(C)(C)C)cc1 [I-204] |  | 
14 | > 75 | < 10 | 50 to 75 | 10 to 100 | 100 to 1000 | Cc1ncsc1-c1ccc([C@H](C)NC(=O)[C@@H]2C[C@@H](O)CN2C(=O)[C@@H](NC(=O)COCCN2CCC(S(=O)(=O)NC(=O)c3nc(N4CCc5cccc(C(=O)Nc6nc7ccccc7s6)c5C4)ccc3-c3cnn(CC4CCCCC4)c3C)CC2)C(C)(C)C)cc1 [I-206] |  | 
15 | 50 to 75 | 100 to 500 | < 50 | > 1000 | 100 to 1000 | Cc1ncsc1-c1ccc(CNC(=O)[C@@H]2C[C@@H](O)CN2C(=O)[C@@H](NC(=O)C2(F)CC2)C(C)(C)C)c(OCCN2CC3(C2)CN(C(=O)c2nc(N4CCc5cccc(C(=O)Nc6nc7ccccc7s6)c5C4)ccc2-c2cnn(CC4CCCCC4)c2C)C3)c1 [I-207] |  | 
16 | 50 to 75 | 500 to 1000 | < 50 | > 1000 | 100 to 1000 | Cc1ncsc1-c1ccc(CNC(=O)[C@@H]2C[C@@H](O)CN2C(=O)[C@@H](NC(=O)C2(F)CC2)C(C)(C)C)c(OCCC2CN(CC[C@H](CSc3ccccc3)Nc3ccc(S(=O)(=O)NC(=O)c4ccc(N5CCN(CC6=C(c7ccc(Cl)cc7)CCC(C)(C)C6)CC5)cc4)cc3S(=O)(=O)C(F)(F)F)C2)c1 [I-208] |  | 
17 | > 75 | 10 to 100 | 50 to 75 | 100 to 500 | < 100 | Cc1ncsc1-c1ccc([C@H](C)NC(=O)[C@@H]2C[C@@H](O)CN2C(=O)[C@@H](NC(=O)CCC2CCC(S(=O)(=O)NC(=O)c3nc(N4CCc5cccc(C(=O)Nc6nc7ccccc7s6)c5C4)ccc3-c3cnn(CC4CCCCC4)c3C)CC2)C(C)(C)C)cc1 (some centres unmarked) [I-209] |  | 
18 | > 75 | 100 to 500 | 50 to 75 | 100 to 500 | 100 to 1000 | Cc1ncsc1-c1ccc([C@H](C)NC(=O)[C@@H]2C[C@@H](O)CN2C(=O)[C@@H](NC(=O)N2CC(c3ccc(S(=O)(=O)NC(=O)c4nc(N5CCc6cccc(C(=O)Nc7nc8ccccc8s7)c6C5)ccc4-c4cnn(CC5CCCCC5)c4C)cc3)C2)C(C)(C)C)cc1 [I-210] |  | 
19 | > 75 | < 10 | 50 to 75 | 100 to 500 | 100 to 1000 | Cc1ncsc1-c1ccc([C@H](C)NC(=O)[C@@H]2C[C@@H](O)CN2C(=O)[C@@H](NC(=O)N2CC(N3CCC(S(=O)(=O)NC(=O)c4nc(N5CCc6cccc(C(=O)Nc7nc8ccccc8s7)c6C5)ccc4-c4cnn(CC5CCCCC5)c4C)CC3)C2)C(C)(C)C)cc1 [I-212] |  | 
20 | 50 to 75 | 100 to 500 |  |  | 1000 to 3000 | Cc1ncsc1-c1ccc([C@H](C)NC(=O)[C@@H]2C[C@@H](O)CN2C(=O)[C@H](c2cc(N3CCN(c4ccc(S(=O)(=O)NC(=O)c5nc(N6CCc7cccc(C(=O)Nc8nc9ccccc9s8)c7C6)ccc5-c5cnn(CC6CCCCC6)c5C)cc4)CC3)no2)C(C)C)cc1 [I-213] |  | 
21 | < 50 | > 1000 |  |  | > 3000 | Cc1ncsc1-c1ccc([C@H](C)NC(=O)[C@@H]2C[C@@H](O)CN2C(=O)[C@@H](NC(=O)CCCCCC(=O)N2CCN(CC[C@H](CSc3ccccc3)Nc3ccc(S(=O)(=O)NC(=O)c4ccc(N5CCC(C)(C)CC5)cc4)cc3S(=O)(=O)C(F)(F)F)CC2)C(C)(C)C)cc1 [I-392] |  | 
22 | < 50 | > 1000 |  |  | > 3000 | Cc1ncsc1-c1ccc([C@H](C)NC(=O)[C@@H]2C[C@@H](O)CN2C(=O)[C@@H](NC(=O)CCCCCCC(=O)N2CCN(CC3(C)CCC(c4ccc(Cl)cc4)=C(CN4CCN(c5ccc(C(=O)NS(=O)(=O)c6ccc(NCC78CC9CC(CC(O)(C9)C7)C8)c(S(=O)(=O)C(F)(F)F)c6)cc5)CC4)C3)CC2)C(C)(C)C)cc1 (some centres unmarked) [I-398] |  | 
